Entries after “also recorded” stand apart in the source; their conditions may differ. Like-named read-outs stand apart in the source and are kept apart here.
Key:
[1] = tested on: mutant AR which is expressed in LNCaP cells; test: Androgen receptor-mediated gene transcription, mutant AR of LNCaP cells (luciferase, CV1 cells); format: cell-based, human
[2] = target: T1, Human Testicular C17,20-lyase (Homo sapiens, UniProt P05093); test: Inhibition of human testicular C17,20-lyase (pregnenolone substrate, testicular microsomes); format: biochemical
T1 construct: incubating human testicular microsomes; from tissue; host or cells: human testis, microsomes
T1 sequence (P05093 1-508): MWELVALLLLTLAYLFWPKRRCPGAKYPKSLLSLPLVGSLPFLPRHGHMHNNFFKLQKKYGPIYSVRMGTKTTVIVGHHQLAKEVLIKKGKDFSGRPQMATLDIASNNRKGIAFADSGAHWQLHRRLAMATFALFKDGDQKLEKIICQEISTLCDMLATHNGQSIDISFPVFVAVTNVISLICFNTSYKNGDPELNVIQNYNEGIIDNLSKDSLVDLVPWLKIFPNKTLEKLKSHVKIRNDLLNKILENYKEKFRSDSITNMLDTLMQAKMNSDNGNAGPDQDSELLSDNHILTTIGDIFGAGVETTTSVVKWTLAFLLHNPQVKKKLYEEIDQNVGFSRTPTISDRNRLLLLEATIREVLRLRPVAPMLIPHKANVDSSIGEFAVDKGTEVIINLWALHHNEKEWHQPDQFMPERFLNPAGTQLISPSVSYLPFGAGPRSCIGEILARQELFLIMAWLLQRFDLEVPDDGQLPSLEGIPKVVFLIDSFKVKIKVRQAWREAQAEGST
Summary of the method: (§1)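 Human testicular microsomes were incubated with radiolabeled pregnenolone and a range of test compound concentrations. Substrate, 17α-hydroxypregnenolone and DHEA were separated and quantified by reverse-phase HPLC. Hydroxylase activity came from total conversion to 17α-hydroxypregnenolone plus DHEA; lyase activity from conversion to DHEA alone.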

[3] = tested on: LNCaP human prostatic tumors; test: Human prostatic cancer (LNCaP) xenograft in male nude mice; format: in vivo, human (LNCaP) tumors in BALB/c male athymic mice; conditions: five weeks
Protocol: We have reported that inoculation of MCF-7 breast cancer cells in Matrigel increases mammary tumor formation in nude mice (Yue et al., 1994). The same procedure was therefore utilized to develop tumors from human prostatic cancer cells (LNCAP) in male nude mice. BALB/c male athymic mice, 4-6 weeks old, were inoculated sc with LNCaP cells suspended in Matrigel (10 mg/ml). Four sites per mouse were injected with 1.8×10^6 cells in 0.1 ml Matrigel. Treatment began when the tumor reached about 100 mm^3 in volume. Tumors were measured before the treatment began and once a week during treatment. Tumor volume was calculated by the formula 4/3πr1^2 r2 (r1 <r2).At the end of treatment, the mice were sacrificed and individual tumors were weighed. The latency of tumor development was 30-40 days and overall tumorigenicity was 82%.
In a further experiment, two mice were treated with I-16 (1 mg/mouse/day, s.c.) beginning 45 days after cell inoculation. Two mice received vehicle as controls. […] The mean tumor weight was 198.78±72 mg in I-16 treated mice compared to 386.3±147.2 mg in the control group. In other experiments, I-47 and I-49 were effective in controlling tumor growth. The total tumor volume of the control mice increased to 884.0% of the initial volume.

[4] = tested on: adrenal 17α-hydroxylase/C17,20-lyase; test: Inhibition of adrenal 17α-hydroxylase/C17,20-lyase; format: biochemical; conditions: guinea pig adrenal
[5] = target: human androgen receptor (AR) (Homo sapiens, UniProt P10275); test: Androgen receptor-mediated gene transcription, wild-type AR (luciferase, CV1 cells); format: cell-based; conditions: against DHT stimulation
[6] = tested on: human prostatic tissue (BPH or prostate cancer); test: Prostate tissue in histoculture, DNA synthesis ([3H]-thymidine uptake); conditions: inhibitor 1 μM
Protocol: We recently developed a histoculture method to evaluate the growth inhibiting properties of the compounds on human prostatic tissue. […] The tissue samples were then incubated for 3 days in fresh medium/treatment containing 2 μCi/ml [^3 H]-thymidine. Tissue was then digested and DNA extracted. For each sample, [^3 H]-thymidine uptake was normalized to DNA content. […] This finding is consistent with the compound acting as an antiandrogen. None of the compounds produced an independent effect on DNA synthesis in the absence of added androgens.

[7] = tested on: LNCaP human prostatic cancer cell line; test: Androgen-dependent growth of LNCaP cells
Protocol: The ability of various inhibitors to reverse the stimulatory effect of testosterone on the growth of the LNCaP human prostatic cancer cell line was tested by comparing cell number in wells treated for 9 days with either drug vehicle only (control), 0.1 nM testosterone only, or 0.1 nM testosterone with inhibitor at 0.3, 1, 2.5, or 5 μM.

[8] = target: T2, Human Testicular 17α-Hydroxylase (Homo sapiens, UniProt P05093); test: Inhibition of human testicular 17α-hydroxylase (pregnenolone substrate, testicular microsomes); format: biochemical
T2 construct: incubating human testicular microsomes; from tissue; host or cells: human testis, microsomes
T2 sequence (P05093 1-508): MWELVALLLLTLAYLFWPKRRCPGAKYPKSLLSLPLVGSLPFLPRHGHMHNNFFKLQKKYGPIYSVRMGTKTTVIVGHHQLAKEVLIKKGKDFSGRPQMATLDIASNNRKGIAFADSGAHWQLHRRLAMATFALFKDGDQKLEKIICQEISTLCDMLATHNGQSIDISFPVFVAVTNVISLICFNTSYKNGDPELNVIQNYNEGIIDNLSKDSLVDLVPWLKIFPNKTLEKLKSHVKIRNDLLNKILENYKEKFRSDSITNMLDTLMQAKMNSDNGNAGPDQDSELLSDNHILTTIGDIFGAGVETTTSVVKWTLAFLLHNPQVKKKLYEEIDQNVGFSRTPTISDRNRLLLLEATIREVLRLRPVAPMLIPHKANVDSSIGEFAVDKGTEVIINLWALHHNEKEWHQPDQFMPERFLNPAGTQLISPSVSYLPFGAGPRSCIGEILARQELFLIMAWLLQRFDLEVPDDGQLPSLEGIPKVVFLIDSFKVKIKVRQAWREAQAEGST
Summary of the method: as §1

[9] = target: T3, human 17α-hydroxylase/C17,20-lyase (Homo sapiens, UniProt P05093); test: Inhibition of human testicular 17α-hydroxylase/C17,20-lyase (enzyme complex as a whole); format: biochemical
T3 construct: incubating human testicular microsomes; from tissue; host or cells: human testis, microsomes
T3 sequence (P05093 1-508): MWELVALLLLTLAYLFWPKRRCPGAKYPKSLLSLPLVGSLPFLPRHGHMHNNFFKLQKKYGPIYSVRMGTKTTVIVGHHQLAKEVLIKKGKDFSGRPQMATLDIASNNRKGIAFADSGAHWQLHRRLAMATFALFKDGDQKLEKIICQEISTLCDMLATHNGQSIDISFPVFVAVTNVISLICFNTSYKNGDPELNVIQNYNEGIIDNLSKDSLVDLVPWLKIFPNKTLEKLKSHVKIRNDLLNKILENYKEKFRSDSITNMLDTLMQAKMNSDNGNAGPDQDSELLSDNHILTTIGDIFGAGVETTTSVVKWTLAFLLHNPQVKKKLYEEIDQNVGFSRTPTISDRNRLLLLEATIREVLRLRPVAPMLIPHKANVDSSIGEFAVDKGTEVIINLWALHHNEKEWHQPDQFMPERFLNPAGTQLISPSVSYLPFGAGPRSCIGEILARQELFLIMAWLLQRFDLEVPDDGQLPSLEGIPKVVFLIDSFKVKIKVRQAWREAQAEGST
Summary of the method: as §1

[10] = substrate: CC(=O)[C@H]1CC[C@H]2[C@@H]3CCC4=CC(=O)CC[C@]4(C)[C@H]3CC[C@]12C; test: Inhibition kinetics of rat 17α-hydroxylase, progesterone substrate; format: biochemical; conditions: other: substrate
[11] = substrate: CC(=O)[C@@]1(O)CC[C@H]2[C@@H]3CCC4=CC(=O)CC[C@]4(C)[C@H]3CC[C@@]21C; test: Inhibition kinetics of rat C17,20-lyase, 17α-hydroxyprogesterone substrate; format: biochemical; conditions: other: substrate

Chain of human androgen receptor (AR) (P10275 whole entry): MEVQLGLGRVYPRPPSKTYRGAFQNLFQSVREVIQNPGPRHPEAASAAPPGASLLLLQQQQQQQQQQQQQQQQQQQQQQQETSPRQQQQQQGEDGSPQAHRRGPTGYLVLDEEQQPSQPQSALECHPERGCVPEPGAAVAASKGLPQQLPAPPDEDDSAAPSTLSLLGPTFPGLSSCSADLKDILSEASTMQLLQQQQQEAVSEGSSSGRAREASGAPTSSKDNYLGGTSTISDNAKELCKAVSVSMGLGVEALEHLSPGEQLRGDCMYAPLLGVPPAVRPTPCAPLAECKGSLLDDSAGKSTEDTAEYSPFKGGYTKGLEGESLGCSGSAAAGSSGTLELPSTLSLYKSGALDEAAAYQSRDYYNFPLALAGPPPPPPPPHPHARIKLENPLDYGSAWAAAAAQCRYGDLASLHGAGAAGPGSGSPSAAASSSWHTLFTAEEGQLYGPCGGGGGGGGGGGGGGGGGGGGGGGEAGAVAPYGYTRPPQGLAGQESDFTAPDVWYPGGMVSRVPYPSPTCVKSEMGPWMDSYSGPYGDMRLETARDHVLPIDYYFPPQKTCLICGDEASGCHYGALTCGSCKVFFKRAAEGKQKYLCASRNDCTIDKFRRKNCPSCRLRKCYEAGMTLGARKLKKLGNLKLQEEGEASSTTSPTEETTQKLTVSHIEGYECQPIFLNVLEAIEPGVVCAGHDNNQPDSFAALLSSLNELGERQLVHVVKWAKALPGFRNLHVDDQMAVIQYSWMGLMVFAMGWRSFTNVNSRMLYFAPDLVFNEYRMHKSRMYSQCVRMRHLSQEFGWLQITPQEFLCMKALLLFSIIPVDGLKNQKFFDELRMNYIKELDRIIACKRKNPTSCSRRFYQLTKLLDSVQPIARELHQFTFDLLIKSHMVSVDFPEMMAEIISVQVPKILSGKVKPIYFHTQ

## C[C@]12CC[C@H]3[C@@H](CC=C4C[C@@H](O)CC[C@@]43C)[C@@H]1CC[C@@H]2c1c[nH]cn1 [Compound I-47, 17β-(4'-imidazolyl)-androst-5-en-3β-ol]
[1]
  agonism/antagonism at mutant AR of LNCaP cells (in words): antagonist; also recorded: not an agonist of the mutant receptor
[2]; Table 1, NI = no inhibition, CI = complete inhibition, read-out: IC50 C17,20 lyase
  IC50: 23 nM
[2]; Table 3, second figure of pair, CI = complete inhibition, read-out: IC50 lyase
  IC50: 22.6 nM
[2]; second figure of pair, read-out: IC50 C17,20-lyase
  IC50: 7 nM
[3]; 4 mice per group, control 884.0%, FIG. 2
  total tumor volume (% of initial volume), 5 weeks: 525.8%
[3]; control 1310.5±1125.9 mg, I-49 p<0.05 vs control
  mean tumor weight, 5-week experiment: 607.0 ± 142.4 mg
[4]
  effect on adrenal enzyme (in words): very little effect
[5]
  antagonism of wild-type AR (in words): dose-dependent antagonism
[6]; DHT 10 nM
  reversal of DHT-stimulated DNA synthesis (in words), 1 μM: almost completely reversed
[6]; testosterone 1 μM, FIG. 1
  reversal of testosterone-stimulated DNA synthesis (in words), 1 μM: almost complete reversal
[7]; 0.03 nM DHT
  reversal of DHT-stimulated LNCaP growth (in words): dose-dependent reversal
[7]; 0.03 nM DHT, inhibitor 5 μM
  reversal of DHT-stimulated LNCaP growth at 5 μM (in words): nearly complete reversal
[7]; 0.1 nM testosterone, inhibitor 5 μM
  reversal of testosterone-stimulated LNCaP growth at 5 μM (in words): almost completely reversed
[7]; 0.1 nM testosterone, inhibitor 0.3-5 μM, 9 days
  reversal of testosterone-stimulated LNCaP growth (in words): dose-dependent reversal
[7]; Homo sapiens, LNCaP, 216 h, read-out: concentration reducing the stimulatory effect of testosterone by 50%
  IC50: ≤ 1000 nM
[8]; Table 1, NI = no inhibition, read-out: IC50 17α-OHase
  IC50: 25 nM
[8]; Table 3, first figure of 17α-hydroxylase/lyase pair, read-out: IC50 17α-hydroxylase
  IC50: 25.2 nM
[8]; first figure of pair, read-out: IC50 17α-hydroxylase
  IC50: 11 nM
[9]; NI = no inhibition
  inhibition of 17α-hydroxylase/C17,20-lyase (in words): potent inhibitors
[9]; vs ketoconazole
  times more potent than ketoconazole: 10-50 times

B1: rat 17α-hydroxylase (Rattus norvegicus) (protein)
chain: MWELVGLLLLILAYFFWVKSKTPGAKLPRSLPSLPLVGSLPFLPRRGHMHVNFFKLQEKYGPIYSLRLGTTTTVIIGHYQLAREVLIKKGKEFSGRPQMVTQSLLSDQGKGVAFADAGSSWHLHRKLVFSTFSLFKDGQKLEKLICQEAKSLCDMMLAHDKESIDLSTPIFMSVTNIICAICFNISYEKNDPKLTAIKTFTEGIVDATGDRNLVDIFPWLTIFPNKGLEVIKGYAKVRNEVLTGIFEKCREKFDSQSISSLTDILIQAKMNSDNNNSCEGRDPDVFSDRHILATVGDIFGAGIETTTTVLKWILAFLVHNPEVKKKIQKEIDQYVGFSRTPTFNDRSHLLMLEATIREVLRIRPVAPMLIPHKANVDSSIGEFTVPKDTHVVVNLWALHHDENEWDQPDQFMPERFLDPTGSHLITPTQSYLPFGAGPRSCIGEALARQELFVFTALLLQRFDLDVSDDKQLPRLEGDPKVVFLIDPFKVKITVRQAWMDAQAEVST
[10]
  Km: 0.029 µM

B2: rat C17,20-lyase (Rattus norvegicus) (protein)
chain: MWELVGLLLLILAYFFWVKSKTPGAKLPRSLPSLPLVGSLPFLPRRGHMHVNFFKLQEKYGPIYSLRLGTTTTVIIGHYQLAREVLIKKGKEFSGRPQMVTQSLLSDQGKGVAFADAGSSWHLHRKLVFSTFSLFKDGQKLEKLICQEAKSLCDMMLAHDKESIDLSTPIFMSVTNIICAICFNISYEKNDPKLTAIKTFTEGIVDATGDRNLVDIFPWLTIFPNKGLEVIKGYAKVRNEVLTGIFEKCREKFDSQSISSLTDILIQAKMNSDNNNSCEGRDPDVFSDRHILATVGDIFGAGIETTTTVLKWILAFLVHNPEVKKKIQKEIDQYVGFSRTPTFNDRSHLLMLEATIREVLRIRPVAPMLIPHKANVDSSIGEFTVPKDTHVVVNLWALHHDENEWDQPDQFMPERFLDPTGSHLITPTQSYLPFGAGPRSCIGEALARQELFVFTALLLQRFDLDVSDDKQLPRLEGDPKVVFLIDPFKVKITVRQAWMDAQAEVST
[11]
  Km: 0.076 µM

Source: patent US5994334A, “Androgen synthesis inhibitors” (priority 1997, dated 1999)
